The structures appear in SMILES notation.
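Wherever viability, T/C is given: spheroids exposed to drugs for seven days before readout.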

For one experiment, the system named is 843126-344-R-J1-PDC complex spheroid viability. In words: Anticancer human tumor 843126-344-R-J1-PDC patient-derived melanoma cell line growth inhibition [POLQ]. Particulars: curve of first compound; second compound 10 µM. Put shortly: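 Three-cell-type spheroids modelling solid tumor plus stroma served as the readout system; POL inhibitors were tested individually and in combination, concentration ranges set by clinical Cmax where known.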
Broadly, the IC50 is the concentration at which inhibition is half-maximal. Take `CC1COCCN1c1cc(C2(O)CC3CCC(C2)O3)c2cnn(-c3ccn[nH]3)c2n1` (stereo unspecified) + Nc1ccc(C#CCN(C(=O)Cc2ncc(C(F)(F)F)cc2C(F)(F)F)c2ccc(F)cc2)nn1: the IC50 amounted to 0.21 µM.
In the case of `CCc1cc2c(N3CCc4c(cc(Cn5ccnc5)cc4-c4cn(C)nc4C(F)(F)F)C3=O)cc(C)nc2c(OC)n1` + Nc1ccc(C#CCN(C(=O)Cc2ncc(C(F)(F)F)cc2C(F)(F)F)c2ccc(F)cc2)nn1, the IC50 is above 10 µM.
Same read-out and setting: then `COc1cc2cc(C(=O)CCC(=O)O)sc2cc1OC` + Nc1ccc(C#CCN(C(=O)Cc2ncc(C(F)(F)F)cc2C(F)(F)F)c2ccc(F)cc2)nn1, with above 10 µM; and `O=C(Nc1ccc(O)c(NS(=O)(=O)c2ccc(F)cc2)c1)c1ccc(-c2ccccc2)cc1` + Nc1ccc(C#CCN(C(=O)Cc2ncc(C(F)(F)F)cc2C(F)(F)F)c2ccc(F)cc2)nn1, with above 10 µM.

The experiment is the same for the next values; noted with them: second compound 0.0316 µM; first compound 0.0316 µM; stronger effect = lower value.
For orientation: viability, T/C means the result in the treated group divided by that in the control group, in per cent. Take `C#Cc1c(F)ccc2cc(O)cc(-c3ncc4c(N5CC6CCC(C5)N6)nc(OCC56CCCN5CC(F)C6)nc4c3F)c12` (stereo unspecified) + Nc1ccc(C#CCN(C(=O)Cc2ncc(C(F)(F)F)cc2C(F)(F)F)c2ccc(F)cc2)nn1: the viability, T/C was 87.4%.
Consider `CC1COCCN1c1cc(C2(O)CC3CCC(C2)O3)c2cnn(-c3ccn[nH]3)c2n1` (stereo unspecified) + Nc1ccc(C#CCN(C(=O)Cc2ncc(C(F)(F)F)cc2C(F)(F)F)c2ccc(F)cc2)nn1, for which the viability, T/C is 82.7%.
`CCc1cc2c(N3CCc4c(cc(Cn5ccnc5)cc4-c4cn(C)nc4C(F)(F)F)C3=O)cc(C)nc2c(OC)n1` + Nc1ccc(C#CCN(C(=O)Cc2ncc(C(F)(F)F)cc2C(F)(F)F)c2ccc(F)cc2)nn1: the viability, T/C is 96.9%.
On to `COc1cc2cc(C(=O)CCC(=O)O)sc2cc1OC` + Nc1ccc(C#CCN(C(=O)Cc2ncc(C(F)(F)F)cc2C(F)(F)F)c2ccc(F)cc2)nn1, for which the viability, T/C is 84.1%.
Same read-out and setting: the same measure for `O=C(Nc1ccc(O)c(NS(=O)(=O)c2ccc(F)cc2)c1)c1ccc(-c2ccccc2)cc1` + Nc1ccc(C#CCN(C(=O)Cc2ncc(C(F)(F)F)cc2C(F)(F)F)c2ccc(F)cc2)nn1: 82.5%.

The experiment is the same for the next values; noted with them: second compound 0.0316 µM; first compound 0.1 µM; stronger effect = lower value.
In the case of `C#Cc1c(F)ccc2cc(O)cc(-c3ncc4c(N5CC6CCC(C5)N6)nc(OCC56CCCN5CC(F)C6)nc4c3F)c12` (stereo unspecified) + Nc1ccc(C#CCN(C(=O)Cc2ncc(C(F)(F)F)cc2C(F)(F)F)c2ccc(F)cc2)nn1, the viability, T/C was 95.1%.
Turning to `CC1COCCN1c1cc(C2(O)CC3CCC(C2)O3)c2cnn(-c3ccn[nH]3)c2n1` (stereo unspecified) + Nc1ccc(C#CCN(C(=O)Cc2ncc(C(F)(F)F)cc2C(F)(F)F)c2ccc(F)cc2)nn1, the viability, T/C is 65.4%.
On to `CCc1cc2c(N3CCc4c(cc(Cn5ccnc5)cc4-c4cn(C)nc4C(F)(F)F)C3=O)cc(C)nc2c(OC)n1` + Nc1ccc(C#CCN(C(=O)Cc2ncc(C(F)(F)F)cc2C(F)(F)F)c2ccc(F)cc2)nn1, for which the viability, T/C was 95.3%.
As for `COc1cc2cc(C(=O)CCC(=O)O)sc2cc1OC` + Nc1ccc(C#CCN(C(=O)Cc2ncc(C(F)(F)F)cc2C(F)(F)F)c2ccc(F)cc2)nn1, the viability, T/C was 82.5%.
On the same count and under the same terms, the same measure for `O=C(Nc1ccc(O)c(NS(=O)(=O)c2ccc(F)cc2)c1)c1ccc(-c2ccccc2)cc1` + Nc1ccc(C#CCN(C(=O)Cc2ncc(C(F)(F)F)cc2C(F)(F)F)c2ccc(F)cc2)nn1: 94.9%.

Still in this experiment, the particulars now being: second compound 0.0316 µM; first compound 0.316 µM; stronger effect = lower value.
Consider `C#Cc1c(F)ccc2cc(O)cc(-c3ncc4c(N5CC6CCC(C5)N6)nc(OCC56CCCN5CC(F)C6)nc4c3F)c12` (stereo unspecified) + Nc1ccc(C#CCN(C(=O)Cc2ncc(C(F)(F)F)cc2C(F)(F)F)c2ccc(F)cc2)nn1, for which the viability, T/C is 99.8%.
Still for that read-out and setting: the same measure for `CC1COCCN1c1cc(C2(O)CC3CCC(C2)O3)c2cnn(-c3ccn[nH]3)c2n1` (stereo unspecified) + Nc1ccc(C#CCN(C(=O)Cc2ncc(C(F)(F)F)cc2C(F)(F)F)c2ccc(F)cc2)nn1: 54.9%; for `CCc1cc2c(N3CCc4c(cc(Cn5ccnc5)cc4-c4cn(C)nc4C(F)(F)F)C3=O)cc(C)nc2c(OC)n1` + Nc1ccc(C#CCN(C(=O)Cc2ncc(C(F)(F)F)cc2C(F)(F)F)c2ccc(F)cc2)nn1: 82%; for `COc1cc2cc(C(=O)CCC(=O)O)sc2cc1OC` + Nc1ccc(C#CCN(C(=O)Cc2ncc(C(F)(F)F)cc2C(F)(F)F)c2ccc(F)cc2)nn1: 81.6%.
Turning to `O=C(Nc1ccc(O)c(NS(=O)(=O)c2ccc(F)cc2)c1)c1ccc(-c2ccccc2)cc1` + Nc1ccc(C#CCN(C(=O)Cc2ncc(C(F)(F)F)cc2C(F)(F)F)c2ccc(F)cc2)nn1, the viability, T/C was 91.8%.

Staying with this experiment, now noted: second compound 0.0316 µM; first compound 1 µM; stronger effect = lower value.
For the molecule `C#Cc1c(F)ccc2cc(O)cc(-c3ncc4c(N5CC6CCC(C5)N6)nc(OCC56CCCN5CC(F)C6)nc4c3F)c12` (stereo unspecified) + Nc1ccc(C#CCN(C(=O)Cc2ncc(C(F)(F)F)cc2C(F)(F)F)c2ccc(F)cc2)nn1, the viability, T/C was 88.7%.
For the molecule `CC1COCCN1c1cc(C2(O)CC3CCC(C2)O3)c2cnn(-c3ccn[nH]3)c2n1` (stereo unspecified) + Nc1ccc(C#CCN(C(=O)Cc2ncc(C(F)(F)F)cc2C(F)(F)F)c2ccc(F)cc2)nn1, the viability, T/C is 37.2%.
For `CCc1cc2c(N3CCc4c(cc(Cn5ccnc5)cc4-c4cn(C)nc4C(F)(F)F)C3=O)cc(C)nc2c(OC)n1` + Nc1ccc(C#CCN(C(=O)Cc2ncc(C(F)(F)F)cc2C(F)(F)F)c2ccc(F)cc2)nn1, the viability, T/C was 80.7%.
Still for that read-out and setting: then `COc1cc2cc(C(=O)CCC(=O)O)sc2cc1OC` + Nc1ccc(C#CCN(C(=O)Cc2ncc(C(F)(F)F)cc2C(F)(F)F)c2ccc(F)cc2)nn1, with 99.8%; and `O=C(Nc1ccc(O)c(NS(=O)(=O)c2ccc(F)cc2)c1)c1ccc(-c2ccccc2)cc1` + Nc1ccc(C#CCN(C(=O)Cc2ncc(C(F)(F)F)cc2C(F)(F)F)c2ccc(F)cc2)nn1, with 80.5%.

The same experiment, now with this note: second compound 0.0316 µM; first compound 3.16 µM; stronger effect = lower value.
For the molecule `C#Cc1c(F)ccc2cc(O)cc(-c3ncc4c(N5CC6CCC(C5)N6)nc(OCC56CCCN5CC(F)C6)nc4c3F)c12` (stereo unspecified) + Nc1ccc(C#CCN(C(=O)Cc2ncc(C(F)(F)F)cc2C(F)(F)F)c2ccc(F)cc2)nn1, the viability, T/C was 121%.
With `CC1COCCN1c1cc(C2(O)CC3CCC(C2)O3)c2cnn(-c3ccn[nH]3)c2n1` (stereo unspecified) + Nc1ccc(C#CCN(C(=O)Cc2ncc(C(F)(F)F)cc2C(F)(F)F)c2ccc(F)cc2)nn1, the viability, T/C is 29.7%.

The record behind these values is PubChem BioAssay AID1963837 (Molecular Pharmacology Branch, DTP, NCI, 2024).
